ChEMBL document CHEMBL2169792, “Synthesis of new 4-thiazolidinone-, pyrazoline-, and isatin-based conjugates with promising antitumor activity” (J Med Chem, 2012)

Assays:
Assay type in all cases: functional
[1] = Cytotoxicity against human non-small cell lung cancer cells after 48 hrs by SRB assay; conditions: Cancer cell lines; for CC50: read-out: LC50 (the source's name)
[2] = Cytotoxicity against human colon cancer cells after 48 hrs by SRB assay; conditions: Cancer cell lines
[3] = Cytotoxicity against human renal cancer cells after 48 hrs by SRB assay; conditions: Cancer cell lines
U-251 = test: Cytotoxicity against human U251 cells assessed as cell growth at 10 uM after 48 hrs by SRB assay; conditions: U-251, 48 h, read-out: Activity
[4] = Cytotoxicity against human prostate cancer cells after 48 hrs by SRB assay; conditions: Cancer cell lines
[5] = Cytotoxicity against human breast cancer cells after 48 hrs by SRB assay; conditions: Cancer cell lines
[6] = Cytotoxicity against human ovarian cancer cells after 48 hrs by SRB assay; conditions: Cancer cell lines
[7] = Cytotoxicity against human leukemia cells after 48 hrs by SRB assay; conditions: Leukemia cell; for CC50: read-out: LC50 (the source's name)
[8] = Cytotoxicity against human melanoma cells after 48 hrs by SRB assay; conditions: Melanoma cell; for CC50: read-out: LC50 (the source's name)
[9] = Cytotoxicity against human CNS cancer cells after 48 hrs by SRB assay; conditions: Cancer cell lines
NCI-H522 = test: Cytotoxicity against human NCI-H522 cells assessed as cell growth at 10 uM after 48 hrs by SRB assay; conditions: NCI-H522, 48 h, read-out: Activity

Structure (SMILES) | GI50 [1] | TGI [1] | CC50 [1] | GI50 [2] | LC50 (concentration lethal to 50% of cells) [2] | TGI [2] | GI50 [3] | LC50 [3] | TGI [3] | GI50 [4] | LC50 [4] | GI50 [5] | LC50 (concentration causing 50% net cell kill) [5] | TGI [5] | GI50 [6] | LC50 (concentration causing 50% net cell kill) [6] | GI50 [7] | TGI [7] | CC50 [7] | GI50 [8] | also measured
CN(C)c1ccc(C2CC(c3ccccc3)=NN2C2=NC(=O)/C(=C3\C(=O)Nc4ccc(Br)cc43)S2)cc1 (stereo not given) | 0.22 µM | 0.54 µM | 17 µM | 0.2 µM | 1.22 µM | 0.42 µM | 0.2 µM | 7.47 µM | 0.45 µM | 0.27 µM | 55.3 µM | 0.22 µM | 18.7 µM | 0.51 µM | 0.25 µM | 39.6 µM | 0.31 µM | 1.29 µM | 84.8 µM | 0.2 µM | growth at 10 µM (U-251): -51.1%; TGI [4]: 0.72 µM; TGI [6]: 0.69 µM; TGI [8]: 0.46 µM; CC50 [8]: 7.65 µM; GI50 [9]: 0.21 µM; LC50 (concentration giving 50% net cell kill) [9]: 12.3 µM; TGI [9]: 0.45 µM
O=C1Nc2ccccc2C1n1nc(-c2ccccc2)cc1-c1ccc(Cl)cc1 (stereo not given) |  |  |  |  |  |  |  |  |  |  |  |  |  |  |  |  |  |  |  |  | growth at 10 µM (NCI-H522): 76.6%
O=C1Nc2ccccc2C1n1nc(-c2ccc3ccccc3c2)cc1-c1ccc(Cl)cc1 (stereo not given) |  |  |  |  |  |  |  |  |  |  |  |  |  |  |  |  |  |  |  |  | growth at 10 µM (NCI-H522): 90.8%
COc1ccc(-c2cc(-c3ccc(OC)cc3)n(C3C(=O)Nc4ccc(Cl)cc43)n2)cc1 (stereo not given) |  |  |  |  |  |  |  |  |  |  |  |  |  |  |  |  |  |  |  |  | growth at 10 µM (NCI-H522): 82%
Cc1ccc2c(c1)/C(=C1\SC(N3N=C(c4ccccc4)CC3c3ccc(Cl)cc3)=NC1=O)C(=O)N2 (stereo not given) | 0.21 µM | 0.62 µM | 100 µM | 0.23 µM | 100 µM | 0.35 µM | 0.24 µM | 100 µM | 0.52 µM | 0.31 µM | 100 µM | 0.8 µM | 100 µM | 100 µM | 0.26 µM | 100 µM | 0.39 µM | 39.4 µM | 85.2 µM | 0.3 µM | growth at 10 µM (U-251): -54%; TGI [8]: 0.67 µM; CC50 [8]: 100 µM; GI50 [9]: 0.24 µM; LC50 (concentration giving 50% net cell kill) [9]: 75.2 µM; TGI [9]: 0.32 µM
COc1ccc(-c2cc(-c3ccc(OC)cc3)n(C3C(=O)Nc4ccccc43)n2)cc1 (stereo not given) |  |  |  |  |  |  |  |  |  |  |  |  |  |  |  |  |  |  |  |  | growth at 10 µM (NCI-H522): 87.5%
COc1ccc(C2=NN(C3=NC(=O)/C(=C4\C(=O)Nc5ccccc54)S3)C(c3ccc(OC)cc3)C2)cc1 (stereo not given) | 88.1 µM | 91.5 µM | 100 µM | 100 µM | 100 µM | 100 µM | 85.2 µM | 100 µM | 100 µM | 100 µM | 100 µM | 81.5 µM | 100 µM | 99.6 µM | 92.2 µM | 100 µM | 100 µM | 100 µM | 100 µM | 100 µM | growth at 10 µM (U-251): 44.7%; TGI [4]: 100 µM; TGI [6]: 100 µM; TGI [8]: 100 µM; CC50 [8]: 100 µM; GI50 [9]: 43.9 µM; LC50 (concentration giving 50% net cell kill) [9]: 100 µM; TGI [9]: 89.2 µM
COc1ccc(-c2cc(-c3ccc(OC)cc3)n(C3C(=O)Nc4ccc(Br)cc43)n2)cc1 (stereo not given) |  |  |  |  |  |  |  |  |  |  |  |  |  |  |  |  |  |  |  |  | growth at 10 µM (NCI-H522): 88.6%
COc1ccc(C2=NN(C3=NC(=O)/C(=C4\C(=O)Nc5ccc(Br)cc54)S3)C(c3ccc(OC)cc3)C2)cc1 (stereo not given) | 0.2 µM | 0.43 µM | 75.2 µM | 0.2 µM | 50.4 µM | 25.3 µM | 0.2 µM | 64.6 µM | 0.38 µM | 0.27 µM | 100 µM | 0.21 µM | 66.9 µM | 0.48 µM | 0.24 µM | 78.7 µM | 0.28 µM | 62.7 µM | 100 µM | 0.19 µM | growth at 10 µM (U-251): 23.9%; TGI [4]: 0.71 µM; TGI [6]: 32.5 µM; TGI [8]: 0.41 µM; CC50 [8]: 17.3 µM; GI50 [9]: 0.2 µM; LC50 (concentration giving 50% net cell kill) [9]: 70.2 µM; TGI [9]: 0.405 µM
COc1ccc(C2=NN(C3=NC(=O)/C(=C4\C(=O)Nc5ccc(Cl)cc54)S3)C(c3ccc(Cl)cc3)C2)cc1 (stereo not given) | 0.2 µM | 0.46 µM | 7.93 µM | 0.21 µM | 8.2 µM | 0.45 µM | 0.2 µM | 13.8 µM | 0.46 µM | 0.27 µM | 76.2 µM | 0.2 µM | 25.7 µM | 0.47 µM | 0.27 µM | 31.3 µM | 0.27 µM | 0.89 µM | 91.1 µM | 0.2 µM | growth at 10 µM (U-251): -58%; TGI [4]: 0.74 µM; TGI [6]: 7.97 µM; TGI [8]: 0.44 µM; CC50 [8]: 1.21 µM; GI50 [9]: 0.19 µM; LC50 (concentration giving 50% net cell kill) [9]: 12.7 µM; TGI [9]: 0.43 µM
COc1ccc(C2CC(c3ccc4ccccc4c3)=NN2C2=NC(=O)/C(=C3\C(=O)Nc4ccccc43)S2)cc1 (stereo not given) | 0.62 µM | 4.03 µM | 48.7 µM | 1.68 µM | 38.3 µM | 12.4 µM | 0.87 µM | 51.3 µM | 13.6 µM | 0.36 µM | 100 µM | 5.96 µM | 73.7 µM | 32.8 µM | 0.97 µM | 66.9 µM | 17.5 µM | 59.6 µM | 97.5 µM | 4.8 µM | growth at 10 µM (U-251): -26.3%; TGI [4]: 2.47 µM; TGI [6]: 24.2 µM; TGI [8]: 27 µM; CC50 [8]: 64.1 µM; GI50 [9]: 0.67 µM; LC50 (concentration giving 50% net cell kill) [9]: 48.2 µM; TGI [9]: 12.6 µM
COc1ccc(C2=NN(C3=NC(=O)/C(=C4\C(=O)N(C)c5ccccc54)S3)C(c3ccc(Cl)cc3)C2)cc1 (stereo not given) |  |  |  |  |  |  |  |  |  |  |  |  |  |  |  |  |  |  |  |  | growth at 10 µM (NCI-H522): 102%
COc1ccc(C2=NN(C3=NC(=O)/C(=C4\C(=O)Nc5ccc(Cl)cc54)S3)C(c3ccc(OC)cc3)C2)cc1 (stereo not given) | 0.2 µM | 0.44 µM | 64.2 µM | 0.21 µM | 58.7 µM | 0.43 µM | 0.19 µM | 50.5 µM | 0.39 µM | 0.25 µM | 100 µM | 0.22 µM | 75.2 µM | 0.5 µM | 0.23 µM | 83.5 µM | 0.28 µM | 75.2 µM | 100 µM | 0.19 µM | growth at 10 µM (NCI-H522): 0.8%; TGI [4]: 0.71 µM; TGI [6]: 21.2 µM; TGI [8]: 0.38 µM; CC50 [8]: 33.9 µM; GI50 [9]: 0.2 µM; LC50 (concentration giving 50% net cell kill) [9]: 35.5 µM; TGI [9]: 0.42 µM
